The results in this text go back to patent publication US12697349B2, “Compositions and methods for treating RAS-mutant cancers” (MEMORIAL SLOAN KETTERING CANCER CENTER, priority 2019, dated 2026).

The test system of one test is mPDAC cells. Nature of the test: In vitro growth inhibition by auranofin, CellTiter-Glo viable cell numbers. Type of test: cell-based, murine. The following applies: 72 hr, increasing doses, normalized to DMSO-treated cells. The method, then: Relative proliferation was calculated by measuring viable cell numbers, and normalizing to the viable cell numbers of DMSO-treated cells, which were set to 1. Relative proliferation was then plotted as a function of auranofin concentration and fit to an exponential curve.
(§1) Proliferation assays. Competitive proliferation assays using shRNAs in TRMPV-Neo vector (with miR-30 or miR-E backbone) were performed as described previously (Huang et al., Genes Dev. 28(16): 1800-1814 (2014)). Assays for in vitro growth inhibition by auranofin or piperlongumine were performed by counting the viable cell numbers using CellTiter-Glo Luminescent Cell Viability Assay (Promega) after incubation of cells in the presence of increasing concentrations of auranofin or piperlongumine for 72 hr. Proliferation rates were calculated by dividing viable cell numbers at 72 hr by the viable cell numbers at 0 hr. Relative proliferation rates were calculated by normalizing to the proliferation rate of vehicle-treated cells.
Auranofin is an inhibitor of enzymatic activity of TXNRD1 (See Gromer et al., J Biol Chem 273(32): 20096-20101). Myricetin, manumycin A and protoporphyrin IX are also inhibitors of enzymatic activity of TXNRD1. mPDAC cells were treated with the TXNRD1 inhibitor auranofin or DMSO for 72 hr, and viability was measured. DMSO treatment served as a negative control causing a lack of growth inhibition. […]

For test [1], the system named is KRas^G12D; p53^-/- pancreatic cancer organoid tumors. Nature of the test: In vivo drug treatment, KRas^G12D; p53^-/- pancreatic cancer organoids transplanted into the pancreas. The following applies: 10 mg/kg, one per day, 5 days per week, intraperitoneal, 1 week, versus vehicle. Further details: species or system mice. As to the method:
KRas^G12D; p53^−/− organoids were transplanted in recipient mice, and the mice were treated with vehicle only or auranofin (n=3-4) for 1 week. Tumor weights were measured and plotted.
(§2) In vivo drug treatment experiments. For auranofin treatment trials, 16 mg auranofin was first solved in 4 mL ethanol, and then diluted with 12 mL PBS to a final concentration of 1 mg/ml. Mice were given daily auranofin (10 mg/kg) or a similar volume of vehicle by intraperitoneal injection. The sick animals were sacrificed and pancreatic tissues and tumors were used for further analysis.
(§3) Growth inhibitory effects of pharmacological TXNRD1 inhibition was also examined in additional murine PDAC models generated by transplanting KRas^G12D; p53^−/− pancreatic cancer organoid lines into the pancreas of recipient mice. Mice were treated either with vehicle only, acting as a negative control, or auranofin. […] Thus, TXNRD1 is required for the maintenance of KRAS-mutant tumors and dependency in vivo.

Test [2] deals with MIAPaCa-2 (KRAS^G12C) and PSN1 (KRAS^G12R) pancreatic cancer cell lines. Put plainly: Drug combination growth inhibition and synergy analysis (CompuSyn, Combination Index). Type of test: cell-based, human. The following applies: KRAS-mutant pancreatic cancer cells MIAPaCa-2 and PSN1.
Excerpt: Data presented as mean of three independent experiments (n=3). […] Each CI score represents data from at least three independent experiments.
CompuSyn software (Version 1.0) (http://www.combosyn.com), which is based on the Median-Effect Principle and the Combination Index-Isobologram Theorem was used to analyze drug synergism. Combination index (CI) values CI>1 indicates antagonism; CI=0.75-1.25 indicates additive effects; and <1 indicates synergism. Each GI (Growth inhibition) or CI score represents data from at least three independent experiments.
For test [3], the system named is human pancreatic cancer cell lines (KRAS mutant and wild-type KRAS). Nature of the test: In vitro growth inhibition by auranofin or piperlongumine in a panel of pancreatic cancer cell lines. Type of test: cell-based. As to the method:
Relative proliferation was calculated by measuring viable cell numbers, and normalizing to the viable cell numbers of DMSO-treated cells, which were set to 1. Relative proliferation was then plotted as a function of auranofin concentration and fit to an exponential curve. L3.3, Colo357, and BXPC3 have wild-type KRAS, and rest of the cell lines harbor a KRAS mutation.
Cancer cells harboring different KRAS mutations (G12C, G12D, G12V) or wild-type allele were assayed. Relative proliferation was calculated by measuring viable cell numbers, and normalizing to the viable cell numbers of DMSO-treated cells, which were set to 1. Relative proliferation was then plotted as a function of auranofin concentration and fit to an exponential curve.
as §1
Since the screening system discussed above and FIGS. 1A-3B was driven by mutant Kras, p53 loss and Myc overexpression, whether alterations in either gene could dictate sensitivity to TXNRD1 inhibition was investigated. Twelve pancreatic cancer cell lines were treated with increasing concentration of auranofin or DMSO. Among the cell lines used in this experiment L3.3, Colo357, and BXPC3 have wild-type KRAS. The cell lines PANC0327, MIAPaCa-2, PANC0213, ASPC1, 8898, CFPAC-1, L3.6pl, PANC1 and SU8686 harbored KRAS mutations.
To understand whether the observed difference between sensitivities of wild-type KRAS cells and KRAS mutant cells, was statistically significant, the IC50 data of the relative sensitivity of human PDAC cell lines to TXNRD1 inhibition by auranofin was compared. […] To understand the effect of KRAS mutations (G12C, G12D, G12V) on auranofin sensitivity, human pancreatic cancer cells harboring different KRAS mutations (G12C, G12D, G12V) or wild-type were treated with another TXNRD1 inhibitor piperlongumine.

Another test relates to MIAPaCa-2 (KRAS mutant). Put plainly: In vivo drug treatment, human xenograft model (KRAS mutant). The settings on record: auranofin 10 mg/kg intraperitoneal, 2 weeks, versus vehicle. Also on record: species or system mice. As to the method: MIAPaCa-2 (KRAS mutant) or Colo357 (KRAS wild-type) organoids were transplanted into the pancreases of recipient mice. The mice were treated with vehicle only or auranofin (n=5) for 2 weeks. Tumor weights were measured and plotted.
as §2, §3

The structures appear in SMILES notation.

Regarding `CC(=O)OC[C@H]1O[C@@H]([S-])[C@H](OC(C)=O)[C@@H](OC(C)=O)[C@@H]1OC(C)=O.CCP(CC)CC.[Au+]` [auranofin], in the test with mPDAC cells, the “growth inhibition of mPDAC cells (relative proliferation)” value was “inhibited growth of mPDAC cells at submicromolar concentration”. Further, the “tumor growth (tumor weights)” value in test [1] is reported as “triggered a delay in Kras-mutant tumor growth”. Besides, the antiproliferative effect result in test [2] was “antiproliferative effects”. The “correlation of anti-proliferative response (IC50) with KRAS mutational status” value in test [3] (human PDAC cell lines, n=12) was “significant correlation”. For the same molecule, the “correlation of response (IC50) with p53 mutational status or MYC mRNA expression” value in test [3] (human pancreatic cancer cell lines, n=9) is on record as “no significant correlation”. Moreover, in test [3] (twelve pancreatic cancer cell lines, 72 hours, increasing concentration), the “sensitivity to auranofin, KRAS mutant versus wild-type KRAS cells” value was “KRAS mutant cells were generally more sensitive to auranofin than the wild-type KRAS cells”. The “tumor growth inhibition (tumor weights)” value with MIAPaCa-2 (KRAS mutant) is “growth inhibitory effects of pharmacological TXNRD1 inhibition was found”.
As for `COc1cc(/C=C/C(=O)N2CCC=CC2=O)cc(OC)c1OC` [piperlongumine], the “sensitivity to piperlongumine, KRAS mutant versus wild-type KRAS cells” value in test [3] (cells with KRAS G12C, G12D, G12V or wild-type, 72 hours) was “KRAS mutant cells were more sensitive to piperlongumine than the wild-type KRAS cells”.
